Measured values: US4820834A, “Benzodiazepine analogs” (priority 1987, dated 1989)
Read-outs that look alike come from different tables or passages of the source.

Columns and labels:
CCK receptor (pancreas) = biological target: T1, CCK receptor (pancreas) (Rattus norvegicus, UniProt P30551); test: CCK Receptor Binding (Pancreas): inhibition of ^125 I-CCK-33 binding; set-up: species or system Male Sprague-Dawley rats; conditions: rat pancreas membranes, ^125 I-CCK-33, 37° C., 30 minutes
T1 construct: The whole pancreas was dissected free of fat tissue and was homogenized; from tissue; host or cells: rat pancreas membranes (Sprague-Dawley)
T1 sequence (P30551 1-444): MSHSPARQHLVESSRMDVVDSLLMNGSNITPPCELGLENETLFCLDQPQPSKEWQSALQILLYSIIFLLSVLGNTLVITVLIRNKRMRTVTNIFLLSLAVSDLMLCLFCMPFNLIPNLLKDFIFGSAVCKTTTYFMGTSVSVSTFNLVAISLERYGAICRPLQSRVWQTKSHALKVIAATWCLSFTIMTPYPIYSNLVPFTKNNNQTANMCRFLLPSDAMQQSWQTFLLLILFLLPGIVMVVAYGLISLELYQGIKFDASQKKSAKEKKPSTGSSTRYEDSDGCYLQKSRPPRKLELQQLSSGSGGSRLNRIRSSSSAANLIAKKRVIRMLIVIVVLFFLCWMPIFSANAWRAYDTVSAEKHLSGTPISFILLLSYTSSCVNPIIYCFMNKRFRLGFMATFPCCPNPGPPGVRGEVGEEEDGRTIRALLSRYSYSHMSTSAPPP
Method in brief: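 Rat (male Sprague-Dawley) pancreatic membranes in 50 mM Tris HCl pH 7.7 with DTT, bacitracin, PMSF and o-phenanthroline; ^125I-Bolton Hunter-labelled CCK-33 as radioligand. Incubation 30 min at 37° C, separation by centrifugation, pellet gamma-counted; Scatchard analysis by diluting ^125I-CCK-33 with increasing CCK-33.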

[1] = biological target: T2, CCK receptor (brain, cerebral cortex) (Cavia porcellus, UniProt H0VZC5); test: biochemical; format: binding, Male Hartley guinea pigs; conditions: guinea pig cerebral cortex, ^125 I-CCK-33, 25° C., 2 hours
T2 construct: Cerebral cortex was dissected and used as a receptor source; from tissue; host or cells: guinea pig cerebral cortex membranes (male Hartley)
T2 sequence (H0VZC5 1-426): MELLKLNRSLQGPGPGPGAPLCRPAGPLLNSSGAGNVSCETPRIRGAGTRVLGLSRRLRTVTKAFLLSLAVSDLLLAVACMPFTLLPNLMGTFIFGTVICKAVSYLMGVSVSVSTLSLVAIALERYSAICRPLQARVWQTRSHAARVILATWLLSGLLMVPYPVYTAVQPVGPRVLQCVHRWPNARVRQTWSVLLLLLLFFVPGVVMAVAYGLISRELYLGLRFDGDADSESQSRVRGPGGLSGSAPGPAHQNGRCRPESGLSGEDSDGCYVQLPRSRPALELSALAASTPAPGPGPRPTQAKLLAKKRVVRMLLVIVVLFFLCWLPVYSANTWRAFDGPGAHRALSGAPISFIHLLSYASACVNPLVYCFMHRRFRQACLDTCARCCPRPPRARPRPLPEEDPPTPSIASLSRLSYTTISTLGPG
Method in brief: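 Guinea pig cerebral cortex homogenate as receptor source, with radiolabeled CCK-33 in HEPES buffer containing MgCl2, bacitracin, EGTA and 0.4% BSA. Incubation 2 h at 25°C; bound ligand pelleted by centrifugation and gamma-counted.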

[2] = biological target: T3, Gastrin receptor (gastric glands) (Cavia porcellus, UniProt H0VZC5); test: Gastrin Receptor Binding in Guinea Pig Gastric Glands; set-up: species or system guinea pig (male Hartley); conditions: 25° C., 30 minutes
T3 construct: The washed guinea pig gastric glands prepared as above were resuspended; from tissue; host or cells: guinea pig gastric mucosal glands (male Hartley)
T3 sequence (H0VZC5 1-426): T2 sequence (H0VZC5 1-426)

[3] = read-out: IC50 ^125 I-CCK Pancreas
[4] = IC50 ^125 I-Gastrin Gastric Glands
[5] = read-out: IC50 ^125 I-CCK Brain
[6] = ^125 I-gastrin, read-out: IC50 ^125 I-Gastrin Gastric Glands

Compound	IC50 (CCK receptor (pancreas); [3])	IC50 ([1]; IC50 ^125 I-CCK Brain)	IC50 [2, 4]	IC50 (CCK receptor (pancreas); IC50 ^125 I-CCK Pancreas)	IC50 [1, 5]	IC50 [2, 6]
Cc1ccc(NC(=O)N[C@@H]2N=C(c3ccccc3)c3ccccc3N(C)C2=O)cc1 [Example 293, (R)-N-(2,3-Dihydro-1-methyl-2-oxo-5-phenyl-1H-1,4-benzodiazepin-3-yl)-N'-(4-methylphenyl)-urea]	3100 nM	6.5 nM	2.5 nM	–	–	–
Cc1ccc2c(c1)N(C)C(=O)C(NC(=O)c1cc3ccccc3[nH]1)N=C2c1ccccc1 (stereo not drawn) [Example 294, 3-N-(2,3-Dihydro-1,8-dimethyl-2-oxo-5-phenyl-1H-1,4-benzodiazepin-3-yl)-1H-indole-2-carboxamide]	–	–	–	0.1 nM	38 nM	40 nM
COc1cccc(NC(=O)NC2N=C(c3ccccc3)c3ccc(C)cc3N(C)C2=O)c1 (stereo not drawn) [Example 295, N-(3-Methoxyphenyl)-N'-(2,3-dihydro-1,8-dimethyl-2-oxo-5-phenyl-1H-1,4-benzodiazepin-3-yl)-urea]	–	–	–	3 nM	15 nM	34 nM
CN1C(=O)[C@H](NC(=O)Nc2cccc(Cl)c2)N=C(c2ccccc2)c2ccccc21 [Example 296, (R)-N-(2,3-Dihydro-1-methyl-2-oxo-5-phenyl-1H-1,4-benzodiazepin-3-yl)-N'-(3-chloroohenyl)-urea]	290 nM	7.5 nM	2.2 nM	–	–	–
CN1C(=O)C(CC(=O)Nc2ccc(Cl)cc2)N=C(c2ccccc2)c2ccccc21 (stereo not drawn) [Example 297, N-(4-Chlorophenyl)-2,3-dihydro-1-methyl-2-oxo-5-phenyl-1H-1,4-benzodiazepine-3-acetamide]	–	–	–	1800 nM	3700 nM	5200 nM
